Experimental data published in ChEMBL document CHEMBL1201862, “PubChem BioAssay data set” (2004).
Activity calls are given as the source filed them.

Legend:
Cannabinoid receptor 1 [1] = target: T1, Cannabinoid receptor 1 (Homo sapiens, UniProt P21554); assay: SAR analysis of antagonists of the Cannabinoid Receptor 1 using an Image-Based Assay - Set 2. [Related pubchem assays (depositor defined):AID2013, AID2026]; assay type: functional
[2] = target: T2, Short transient receptor potential channel 4 (Mus musculus, UniProt Q9QUQ5); assay: block of DAMGO-driven TRPC4 calcium entry – cell-based, HEK293 TRPC4/mu-opioid, Fluo-4 calcium, dose response (AID 434942); assay type: functional;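 also: potency of inhibitors blocking the TRPC4 calcium response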
T2 sequence (Q9QUQ5 whole entry): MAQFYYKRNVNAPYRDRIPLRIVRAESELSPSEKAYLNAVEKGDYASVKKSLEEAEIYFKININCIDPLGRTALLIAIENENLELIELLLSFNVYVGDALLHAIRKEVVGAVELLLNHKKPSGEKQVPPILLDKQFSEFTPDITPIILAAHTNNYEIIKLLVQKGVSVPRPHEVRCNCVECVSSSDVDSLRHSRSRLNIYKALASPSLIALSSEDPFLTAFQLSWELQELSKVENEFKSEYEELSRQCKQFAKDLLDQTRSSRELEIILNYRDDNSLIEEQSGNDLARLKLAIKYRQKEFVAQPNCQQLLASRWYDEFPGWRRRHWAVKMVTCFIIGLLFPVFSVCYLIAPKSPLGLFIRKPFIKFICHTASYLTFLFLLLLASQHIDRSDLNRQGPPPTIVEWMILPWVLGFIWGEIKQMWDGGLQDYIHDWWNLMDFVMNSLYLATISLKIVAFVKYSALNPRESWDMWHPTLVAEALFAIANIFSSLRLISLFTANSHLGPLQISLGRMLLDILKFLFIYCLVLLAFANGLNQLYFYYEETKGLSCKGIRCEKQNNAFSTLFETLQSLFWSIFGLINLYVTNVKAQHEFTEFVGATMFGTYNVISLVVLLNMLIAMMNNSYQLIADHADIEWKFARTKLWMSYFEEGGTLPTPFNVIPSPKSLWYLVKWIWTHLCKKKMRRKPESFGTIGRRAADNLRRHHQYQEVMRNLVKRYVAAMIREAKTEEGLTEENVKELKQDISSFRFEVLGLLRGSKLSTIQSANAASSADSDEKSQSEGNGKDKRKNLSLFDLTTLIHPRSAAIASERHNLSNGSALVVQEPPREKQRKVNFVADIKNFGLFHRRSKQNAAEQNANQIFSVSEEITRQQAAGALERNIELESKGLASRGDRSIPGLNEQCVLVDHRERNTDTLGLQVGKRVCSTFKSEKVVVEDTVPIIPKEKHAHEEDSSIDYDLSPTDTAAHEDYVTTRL

Cannabinoid receptor 2 [3] = target: T3, Cannabinoid receptor 2 (Homo sapiens, UniProt P34972); assay: SAR analysis of agonists of the Cannabinoid Receptor 2 using an Image-Based Assay. [Related pubchem assays (depositor defined):AID2013, AID2026]; assay type: functional
Streptococcus = assay: GAS UMAA2166 growth inhibition – luminescence, BacTiterGlo, counter-screen for streptokinase expression inhibitor project, dose response (AID 1915); assay type: functional, organism-based;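 also: potency for reduction of bacterial viability or growth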
[4] = target: T4, G-protein coupled receptor 55 (Homo sapiens, UniProt Q9Y2T6); assay: inhibition of LPI-stimulated GPR55 beta-arrestin translocation – imaging, U2OS, beta-arrestin-GFP, LPI agonist, primary screen (AID 2013); assay type: functional;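 also: antagonist potency measured as reduced agonist-driven arrestin aggregation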
Cannabinoid receptor 2 [5] = target: T3, Cannabinoid receptor 2; assay: SAR analysis of antagonists of the Cannabinoid Receptor 2 using an Image-Based Assay. [Related pubchem assays (depositor defined):AID2013, AID2026]; assay type: functional
Streptokinase A = target: T5, Streptokinase A (Streptococcus pyogenes serotype M1, UniProt P10520); assay: viability-normalized secreted streptokinase activity reduction – plasminogen activation absorbance, OD405, dose response (AID 1914); assay type: functional, Streptococcus pyogenes M1 GAS;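 also: secreted streptokinase activity via plasminogen activation per viability signal from cell pellet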
T5 sequence (P10520 whole entry): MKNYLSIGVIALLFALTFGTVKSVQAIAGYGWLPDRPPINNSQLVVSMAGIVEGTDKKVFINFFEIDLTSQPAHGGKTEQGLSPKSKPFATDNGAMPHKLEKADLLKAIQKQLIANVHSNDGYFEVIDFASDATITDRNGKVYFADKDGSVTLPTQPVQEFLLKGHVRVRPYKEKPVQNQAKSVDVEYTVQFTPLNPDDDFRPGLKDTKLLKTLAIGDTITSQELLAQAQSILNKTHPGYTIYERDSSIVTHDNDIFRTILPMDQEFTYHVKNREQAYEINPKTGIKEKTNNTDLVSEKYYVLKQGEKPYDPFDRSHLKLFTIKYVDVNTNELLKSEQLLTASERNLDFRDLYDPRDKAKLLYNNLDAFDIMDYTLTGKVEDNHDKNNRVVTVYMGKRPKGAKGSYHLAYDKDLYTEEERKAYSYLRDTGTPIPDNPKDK

[6] = system: Streptococcus sp. 'group A'; assay: Streptococcus pyogenes SK(-)GAS viability under kanamycin – luminescence, BacTiterGlo, confirmation, counter-screen for streptokinase expression inhibitor project, dose response (AID 1900); assay type: functional, organism-based
Cannabinoid receptor 1 [7] = target: T1, Cannabinoid receptor 1; assay: SAR analysis of agonists of the Cannabinoid Receptor 1 using an Image-Based Assay - Set 2. [Related pubchem assays (depositor defined):AID2013, AID2026]; assay type: functional
[8] = target: T6, G-protein coupled receptor 35 (Homo sapiens, UniProt Q9HC97); assay: SAR analysis of Antagonists of the GPR35 Receptor using an Image-Based Assay - Set 3. [Related pubchem assays (depositor defined):AID2013, AID2026]; assay type: functional
[9] = target: T6, G-protein coupled receptor 35; assay: SAR analysis of Agonists of the GPR35 Receptor using an Image-Based Assay - Set 2. [Related pubchem assays (depositor defined):AID2013, AID2026]; assay type: functional
[10] = target: T4, G-protein coupled receptor 55; assay: blockade of LPI-induced GPR55 arrestin translocation – imaging, U2OS, beta-arrestin-GFP, LPI agonist, set 2, SAR follow-up (AID 2820); assay type: functional
HEK293 = assay: cells; conditions: Homo sapiens;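 also: cells exposed to compound for 14 hours overnight before viability readout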
[11] = target: Nucleotide-binding oligomerization domain-containing protein 1 (Homo sapiens, UniProt Q9Y239); assay: blockers of NOD1 pathway activity – revised, SAR follow-up (AID 2333); assay type: functional
Tumor necrosis factor = Tumor necrosis factor (Homo sapiens, UniProt P01375); assay: analog potency on TNFa NF-kB signaling – cell-based, revised, SAR follow-up (AID 2337); assay type: functional
Keap1/Nrf2 = Keap1/Nrf2 (Homo sapiens, UniProt Q14145); assay: disruptors of Keap1 binding to Nrf2 peptide – biochemical, fluorescence polarization, cherry-picked samples, dose response (AID 588683)
Chain of Keap1/Nrf2 (Q16236 whole entry): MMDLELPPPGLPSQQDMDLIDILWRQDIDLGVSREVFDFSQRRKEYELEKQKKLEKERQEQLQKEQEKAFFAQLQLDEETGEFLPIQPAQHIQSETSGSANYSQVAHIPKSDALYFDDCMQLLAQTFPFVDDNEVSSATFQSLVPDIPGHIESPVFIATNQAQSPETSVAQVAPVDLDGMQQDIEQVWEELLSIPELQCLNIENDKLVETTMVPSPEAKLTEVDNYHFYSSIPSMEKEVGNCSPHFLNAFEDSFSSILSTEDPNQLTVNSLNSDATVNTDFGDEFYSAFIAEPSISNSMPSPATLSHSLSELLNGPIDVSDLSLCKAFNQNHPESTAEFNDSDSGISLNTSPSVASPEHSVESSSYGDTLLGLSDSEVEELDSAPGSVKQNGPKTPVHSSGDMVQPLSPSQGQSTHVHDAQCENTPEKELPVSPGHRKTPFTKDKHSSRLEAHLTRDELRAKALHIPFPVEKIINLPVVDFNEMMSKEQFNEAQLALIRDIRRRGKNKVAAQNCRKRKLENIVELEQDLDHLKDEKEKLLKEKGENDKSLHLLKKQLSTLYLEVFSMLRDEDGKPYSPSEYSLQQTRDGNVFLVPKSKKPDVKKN
Chain of Keap1/Nrf2 (Q14145 whole entry): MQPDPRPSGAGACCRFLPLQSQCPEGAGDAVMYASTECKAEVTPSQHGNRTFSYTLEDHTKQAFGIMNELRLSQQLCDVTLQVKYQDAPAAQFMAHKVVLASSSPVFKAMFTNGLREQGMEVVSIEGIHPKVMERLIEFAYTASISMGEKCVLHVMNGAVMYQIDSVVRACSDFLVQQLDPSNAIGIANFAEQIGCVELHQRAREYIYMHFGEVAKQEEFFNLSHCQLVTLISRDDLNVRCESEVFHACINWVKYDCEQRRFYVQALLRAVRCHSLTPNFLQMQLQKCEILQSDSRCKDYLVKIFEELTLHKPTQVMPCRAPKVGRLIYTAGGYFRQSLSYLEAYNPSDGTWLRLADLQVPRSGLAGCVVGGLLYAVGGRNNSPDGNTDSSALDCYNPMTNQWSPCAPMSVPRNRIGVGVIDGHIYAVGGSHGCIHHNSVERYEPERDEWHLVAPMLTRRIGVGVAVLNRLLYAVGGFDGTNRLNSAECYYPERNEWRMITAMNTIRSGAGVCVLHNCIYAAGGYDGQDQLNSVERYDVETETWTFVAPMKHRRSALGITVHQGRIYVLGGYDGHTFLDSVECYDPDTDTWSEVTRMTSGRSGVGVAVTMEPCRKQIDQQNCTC

T1 sequence (P21554 whole entry): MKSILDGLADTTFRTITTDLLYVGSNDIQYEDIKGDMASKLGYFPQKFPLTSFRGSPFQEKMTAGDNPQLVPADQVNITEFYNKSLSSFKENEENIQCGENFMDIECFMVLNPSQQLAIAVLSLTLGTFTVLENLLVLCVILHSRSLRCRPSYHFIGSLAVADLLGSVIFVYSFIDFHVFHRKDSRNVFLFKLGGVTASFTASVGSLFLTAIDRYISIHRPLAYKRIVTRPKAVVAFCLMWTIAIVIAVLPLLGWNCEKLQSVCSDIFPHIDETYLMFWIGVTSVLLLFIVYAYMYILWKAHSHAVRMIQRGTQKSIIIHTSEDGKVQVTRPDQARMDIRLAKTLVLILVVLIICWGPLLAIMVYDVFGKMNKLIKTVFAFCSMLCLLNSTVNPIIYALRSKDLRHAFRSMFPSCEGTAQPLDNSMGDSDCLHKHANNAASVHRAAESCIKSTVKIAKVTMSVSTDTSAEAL
T4 sequence (Q9Y2T6 whole entry): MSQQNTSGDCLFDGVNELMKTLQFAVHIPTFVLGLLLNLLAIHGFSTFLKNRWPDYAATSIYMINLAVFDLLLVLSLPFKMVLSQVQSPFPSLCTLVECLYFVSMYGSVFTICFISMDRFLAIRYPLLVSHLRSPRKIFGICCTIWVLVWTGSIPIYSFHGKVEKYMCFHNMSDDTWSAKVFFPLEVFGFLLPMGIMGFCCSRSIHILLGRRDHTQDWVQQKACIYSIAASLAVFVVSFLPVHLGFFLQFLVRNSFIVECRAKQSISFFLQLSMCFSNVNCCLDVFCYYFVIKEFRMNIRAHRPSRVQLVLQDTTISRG
T3 sequence (P34972 whole entry): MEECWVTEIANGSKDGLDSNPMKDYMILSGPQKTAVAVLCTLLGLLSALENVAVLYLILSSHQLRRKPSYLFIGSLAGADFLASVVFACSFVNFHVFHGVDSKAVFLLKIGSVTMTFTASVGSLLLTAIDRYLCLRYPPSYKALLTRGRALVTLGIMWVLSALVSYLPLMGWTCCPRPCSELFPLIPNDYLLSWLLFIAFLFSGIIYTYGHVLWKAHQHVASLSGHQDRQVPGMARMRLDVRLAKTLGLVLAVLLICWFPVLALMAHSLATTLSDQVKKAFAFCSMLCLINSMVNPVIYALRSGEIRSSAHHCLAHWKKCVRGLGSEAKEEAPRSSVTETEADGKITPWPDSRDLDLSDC
T6 sequence (Q9HC97 whole entry): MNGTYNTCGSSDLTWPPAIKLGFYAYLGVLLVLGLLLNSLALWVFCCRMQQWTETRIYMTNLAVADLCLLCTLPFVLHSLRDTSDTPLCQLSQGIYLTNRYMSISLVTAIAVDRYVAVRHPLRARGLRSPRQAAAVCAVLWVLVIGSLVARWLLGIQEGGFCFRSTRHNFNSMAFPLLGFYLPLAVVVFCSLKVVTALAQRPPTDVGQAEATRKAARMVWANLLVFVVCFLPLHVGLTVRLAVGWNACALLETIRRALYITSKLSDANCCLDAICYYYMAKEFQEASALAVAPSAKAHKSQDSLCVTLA
Chain of Tumor necrosis factor (P01375 whole entry): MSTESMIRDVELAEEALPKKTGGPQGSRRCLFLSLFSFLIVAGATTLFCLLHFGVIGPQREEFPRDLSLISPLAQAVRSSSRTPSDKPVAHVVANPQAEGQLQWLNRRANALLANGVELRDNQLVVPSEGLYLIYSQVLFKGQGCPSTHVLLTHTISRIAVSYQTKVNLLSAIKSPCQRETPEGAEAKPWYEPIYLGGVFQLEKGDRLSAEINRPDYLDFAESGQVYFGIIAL
Chain of Nucleotide-binding oligomerization domain-containing protein 1 (Q9Y239 whole entry, the tested form may be a part): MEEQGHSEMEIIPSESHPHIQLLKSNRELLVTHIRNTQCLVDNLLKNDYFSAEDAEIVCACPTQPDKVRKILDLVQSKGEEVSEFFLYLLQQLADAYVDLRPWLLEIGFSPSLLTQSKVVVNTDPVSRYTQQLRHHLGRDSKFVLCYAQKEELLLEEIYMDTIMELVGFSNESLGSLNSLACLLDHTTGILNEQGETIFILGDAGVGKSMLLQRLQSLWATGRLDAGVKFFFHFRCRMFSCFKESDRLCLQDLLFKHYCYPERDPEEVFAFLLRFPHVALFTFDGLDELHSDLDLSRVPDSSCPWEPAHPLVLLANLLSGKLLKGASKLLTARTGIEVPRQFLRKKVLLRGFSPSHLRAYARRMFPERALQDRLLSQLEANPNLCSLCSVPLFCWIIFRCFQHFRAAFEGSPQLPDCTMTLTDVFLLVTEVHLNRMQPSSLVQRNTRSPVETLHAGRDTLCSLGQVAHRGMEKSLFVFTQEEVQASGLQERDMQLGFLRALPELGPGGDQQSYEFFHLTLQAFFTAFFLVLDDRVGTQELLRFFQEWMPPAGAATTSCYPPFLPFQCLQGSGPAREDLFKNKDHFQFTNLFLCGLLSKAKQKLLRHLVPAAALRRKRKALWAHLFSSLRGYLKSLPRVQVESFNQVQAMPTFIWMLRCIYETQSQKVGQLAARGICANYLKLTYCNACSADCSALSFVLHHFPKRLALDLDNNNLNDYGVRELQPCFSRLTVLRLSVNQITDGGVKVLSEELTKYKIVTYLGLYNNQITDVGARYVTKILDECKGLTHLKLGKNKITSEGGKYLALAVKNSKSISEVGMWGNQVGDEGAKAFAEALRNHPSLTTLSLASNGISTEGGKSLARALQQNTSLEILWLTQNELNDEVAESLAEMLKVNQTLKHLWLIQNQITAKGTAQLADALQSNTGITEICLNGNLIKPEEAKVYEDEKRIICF

COc1ccc(NC(=O)c2cnn3c(O)cc(C4CCN(C(=O)OC(C)(C)C)CC4)nc23)cc1Cl
IC50 (Cannabinoid receptor 1 [1]): > 32 µM (inactive) | EC50 [2]: 1.33 µM (active) | EC50 (Cannabinoid receptor 2 [3]): > 32 µM (inactive) | EC50 (Streptococcus): 17.8 µM (active) | IC50 [4]: < 0.5 µM (active) | IC50 (Cannabinoid receptor 2 [5]): > 32 µM (inactive) | EC50 (Streptokinase A): > 150 µM (not active) | EC50 [6]: 3.36 µM (active) | EC50 (Cannabinoid receptor 1 [7]): > 32 µM (inactive) | IC50 [8]: 29.4 µM (inactive) | EC50 [9]: 0.506 µM (active) | IC50 [10]: 0.422 µM (active)

COc1ccc(N2CCN(S(=O)(=O)c3ccc4c(c3)CC(C)N4C(=O)C3CC3)CC2)cc1 (stereo unspecified)
IC50 (HEK293): > 20 µM (inactive) | IC50 [11]: 0.506 µM (active) | IC50 (Tumor necrosis factor): 3.85 µM (active)

Cc1cc[n+](-c2[n-]c(=O)sc2C=NNC(=S)Nc2ccccc2)cc1C
AC50 (Keap1/Nrf2): > 52 µM (inactive)
